# “Also recorded” adds a separate entry of the source.
# Tested on: Tsk-1 mice
# Test: Wound healing in Tsk-1 mice (tight-skin mouse model of SSc), 4 mm punch wounds
# Format: in vivo
# Settings: for Healing time relative to healthy WT control mice (in words): TSK mice, no dose given; for Healing time relative to healthy WT control mice (in words) / Wound healing in tsk-1 mice versus placebo (in words): summary statement; for Reduction of wound size / Normalization of wound healing versus placebo-treated WT mice (68%±2%) / Wound healing in tsk-1 mice versus placebo (in words): tsk-1 mice; for Reduction of wound size / Normalization of wound healing versus placebo-treated WT mice (68%±2%): 3 days after punching; for Reduction of wound size: mean±SEM; for Normalization of wound healing versus placebo-treated WT mice (68%±2%): 45 ppm in mice chow; for Wound healing in tsk-1 mice versus placebo (in words): drug in food
# Description: The tight-skin (Tsk-1) mouse model of SSc was used to evaluate the effects of compound according to formula (27) and (3) (BAY 41-2272 and BAY 63-2521) on wound healing in mice with substantial skin fibrosis. Due to an autosomal dominant mutation namely a tandem duplication of the fibrillin-1 gene, the phenotype of tsk-1 mice is characterized by an increased hypodermal thickness (Beyer et al. 2010). Genotyping of Tsk-1 mice was performed by PCR with the following primers: mutated fibrillin-1/tsk-1 forward primer: 5′-[…]-3′, reverse primer: 5′-[…]-3′.
# The effects of either placebo (=vehicle for the compounds=0.5% tylose solution), or the compound according to formula (27) or (3), (BAY 41-2272 or BAY 63-2521) were studied in Tsk-1 mice. Tsk-1 mice were anaesthetized and carefully shaved 3 days before setting the wounds for exact quantification of the wound size. In order to avoid influences on wound healing by daily handling of the animals, the bi-daily gavage treatment was replaced by drug administration in the food. Mice received either normal mice chow (placebo) or mice chow, containing 15 and 45 ppm of compound according to formula (27), (BAY 41-2272) or containing 5 ppm, 15 ppm and 45 ppm of compound according to formula (3), (BAY 63-2521), respectively. […] Treatment groups consist of at least 8 tsk-1 mice per group. Treatment started on the day of shaving to achieve steady state exposure. Three days after shaving, mice were carefully anesthetized and round wounds were punched with 4 mm in diameter. 3 days after punching, mice were euthanized and the wound size was assessed. Statistical analysis of data was done by one-way ANOVA followed by Tuckey's multiple comparison post-hoc analysis
# [1] = 15 ppm in mice chow (exposure similar to 1 mg/kg BID)
# [2] = 45 ppm in mice chow (exposure similar to 3 mg/kg BID)
Compound,Healing time relative to healthy WT control mice (in words),Reduction of wound size [1],Reduction of wound size [2],Normalization of wound healing versus placebo-treated WT mice (68%±2%),Wound healing in tsk-1 mice versus placebo (in words),Reduction of wound size (5 ppm in mice chow (exposure similar to 0.3 mg/kg BID))
Nc1nc(-c2nn(Cc3ccccc3F)c3ncccc23)ncc1C1CC1 [(27)],normalized the healing time to healthy WT control mice,64±2%,73±2%,normalized wound healing to a similar extent as observed in placebo-treated WT mice,significantly and dose-dependently accelerated wound healing; also recorded: significantly and dose-dependently improved,
COC(=O)N(C)c1c(N)nc(-c2nn(Cc3ccccc3F)c3ncccc23)nc1N [(3)],normalized the healing time to healthy WT control mice,65±3%,70%±2%,normalized wound healing to a similar extent as observed in placebo-treated WT mice,significantly and dose-dependently accelerated wound healing; also recorded: dose-dependently and significantly accelerated wound healing; also recorded: significantly and dose-dependently improved,59%±4%

# Reference: patent publication US20180169095A1, “THE USE OF SGC STIMULATORS, SGC ACTIVATORS, ALONE AND COMBINATIONS WITH PDE5 INHIBITORS FOR THE TREATMENT OF DIGITAL ULCERS (DU) CONCOMITANT TO SYSTEMIC SCLEROSIS (SSC)” (Bayer Pharma Aktiengesellschaft, priority 2015, published 2018)
